From EP1509215B1, “TREATMENT OR PREVENTION OF UROGENITAL ATROPHY AND ITS SYMPTOMS IN WOMEN” (Hormos Medical Ltd., priority 2002, dated 2003)

What was measured:
[1] = Tolerability in the clinical studies; type: in vivo, posmenopausal women
Method: (§1) A clinical phase I-II study was carried out to study the effects of ospemifene on endometrial thickness, endometrial pathology, (biopsy taken by curettage as described by Vuopala et al, 1982) and cervical smear in healthy postmenopausal female volunteers in the age range 55 to 69 years. Tolerability and pharmacokinetics were also assessed. Raloxifene (60 mg daily) was used as reference. Ospemifene was given perorally at the doses of 30, 60 and 90 mg daily. […] Ospemifene was administered in gelatine capsules containing either 30, 60 or 90 mg of ospemifene.
Based on the present data, the optimal clinical dose is expected to be higher than 25 mg daily and lower than 100 mg daily. A particularly preferable daily dose is found in the range 30 to 90 mg. […] In addition, ospemifene decreases total and LDL cholesterol, increases HDL cholesterol, and prevents osteoporosis and early stage breast cancer.

endometrium [2] = experiment: Endometrial histology (biopsy taken by curettage), clinical phase I-II study; type: in vivo, healthy postmenopausal female volunteers; details: 30, 60, 90 mg daily, 3 months
Method: as §1
(§2) This effect is clearly weaker than that seen with estrogen replacement therapy. […] The measured values were always smaller than 8 mm, which is considered to be a thickness which is indicative for a physiologically significant estrogenicity of SERMs like tamoxifen (Hann et al, 1997; Lahti et al, 1993).

endometrium [3] = experiment: Thickness of the endometrium by ultrasonography, clinical phase I-II study; type: in vivo, healthy postmenopausal female volunteers; details: for increase in the thickness of the endometrium (average): 3 months, statistically not significant
Method: as §1, §2

vaginal epithelium = experiment: Cervical smear: maturity index / karyopyknosis index of the vaginal epithelium, clinical phase I-II study; details: for Change in maturity index for superficial cells (MI3 mean) / Change in maturity index for parabasal cells (MI1 mean): after 3 months; for Change in maturity index for superficial cells (MI3 mean): index 100 full estrogen, index 0 no estrogenicity; for Change in maturity index for parabasal cells (MI1 mean): index 100 no estrogenicity, index 0 full estrogen; for increase in the karyopyknosis index for superficial cells: 12 weeks; for change from baseline to post-treatment in the karyopyknosis index for superficial cells: individuals, start to 12 weeks, ospemifene 30, 60, 90 mg daily, raloxifene 60 mg daily, result in words
Method: Tolerability and pharmacokinetics were also assessed. Raloxifene (60 mg daily) was used as reference. Ospemifene was given perorally at the doses of 30, 60 and 90 mg daily. There were 29 volunteers at each dose level, as well as in the raloxifene group. Ospemifene was administered in gelatine capsules containing either 30, 60 or 90 mg of ospemifene. […] The vaginal epithelium was assessed by karyopyknosis index which is a well known assessment method among the skilled persons. In this method, the vaginal fraction of the cervical smears is estimated as the percentage of the number of cells from different layers: the parabasal cell layer; the intermediate cell layer; and the superficial cell layer. Estrogenicity is seen by a shift towards superficial cell fraction. In postmenopausal women this fraction usually is close to zero and estradiol treatment increases the fraction close to 100. Samples were taken before and after the treatment (at 3 months).
Table 1. […] (MI 1: index 100 no estrogenicity; index 0 full estrogen, and MI 3: index 100 full estrogen; index 0 no estrogenicity).

Method for urogenital atrophy: In this study, raloxifene (60 mg/day) or ospemifene at different doses were given to elderly female volunteers for a period of 3 months.
77 were treated with 25-30 mg, 78 with 50-60 mg, 78 with 90-100 mg and 8 with 200 mg daily dose of ospemifene. In the control groups, 47 were treated with placebo and 29 with raloxifene. […] The symptoms include both vaginal and urinary symptoms such as vaginal discomfort with irritation, itching, burning, smarting, postcoital bleeding, vulvar itching and/or malodorous discharge and leukorrhea.

SMILES	tolerability [1]	malignant findings in the endometrium (endometrium [2])	estrogenic effect on endometrial histology (endometrium [2]; clearly weaker than with estrogen replacement therapy)	vaginal atrophy (urogenital atrophy; 30, 60 and 90 mg daily, 3 months, elderly female volunteers)	symptoms associated with urogenital atrophy (vaginal and urinary) (urogenital atrophy; spontaneous reports of some subjects, 25-200 mg daily, 241 women treated)	increase in the thickness of the endometrium (average) (endometrium [3]; 30 mg daily) [mm]	increase in the thickness of the endometrium (average) (endometrium [3]; 60 mg daily) [mm]	increase in the thickness of the endometrium (average) (endometrium [3]; 90 mg daily) [mm]	thickness of the endometrium, measured values (endometrium [3]; all measured values, 30, 60, 90 mg daily)	Change in maturity index for superficial cells (MI3 mean) (vaginal epithelium; 30 mg daily perorally)	Change in maturity index for parabasal cells (MI1 mean) (vaginal epithelium; 30 mg daily perorally)	Change in maturity index for superficial cells (MI3 mean) (vaginal epithelium; 60 mg daily perorally)	Change in maturity index for parabasal cells (MI1 mean) (vaginal epithelium; 60 mg daily perorally)	Change in maturity index for superficial cells (MI3 mean) (vaginal epithelium; 90 mg daily perorally)	Change in maturity index for parabasal cells (MI1 mean) (vaginal epithelium; 90 mg daily perorally)	estrogenic effect in the cervical smear (vaginal epithelium; 30, 60, 90 mg daily, 3 months)	pathological changes in cervical smear samples (vaginal epithelium; 30, 60, 90 mg daily, 3 months)	increase in the karyopyknosis index for superficial cells (vaginal epithelium; individual cases, all ospemifene groups (30, 60, 90 mg daily), all cases except one)	change from baseline to post-treatment in the karyopyknosis index for superficial cells (vaginal epithelium)	increase in the karyopyknosis index for superficial cells (vaginal epithelium; one case in the 90 mg group)
OCCOc1ccc(/C(=C(/CCCl)c2ccccc2)c2ccccc2)cc1 [Ospemifene, (deaminohydroxy)toremifene]	excellent tolerability	no malignant findings	weak estrogenic effect	significant decrease in vaginal atrophy	alleviation of the symptoms associated with urogenital atrophy	0.2	0.5	0.5	smaller than 8 mm	+12.4	-40	+5.5	-26	+12.5	-48	weak but statistically significant estrogenic effect	No pathological changes	< 40	slight increases	45
O=C(c1ccc(OCCN2CCCCC2)cc1)c1c(-c2ccc(O)cc2)sc2cc(O)ccc12 [Raloxifene, reference compound]	–	–	–	–	–	–	–	–	–	–	–	-0.3	-2	–	–	–	–	–	no one in the raloxifene group (Fig. 1D) had a significant change	–
